Test results taken from patent US20080058213A1, “Benzoxazole Compounds” (priority 2004, published 2008).

Experiments:
Assay type in all cases: in vivo
velvetleaf = test: Foliage treatment test for upland field (Test Example 3): velvetleaf; settings: foliage treatment at 1.0-2.0 leaf stage of southern crabgrass, examined after 3 weeks
Text: (§1) Evaluation of the herbicidal effect is shown in the following six grades, by comparing the condition of untreated control and growth inhibition (%): • 0: 0%-less than 20% • 1: 20%-less than 40% • 2: 40%-less than 60% • 3: 60%-less than 80% • 4: 80%-less than 100% • 5: 100%.
(§2) Compost mixed soil was filled in 1/3,000 are pots, seeded with southern crabgrass, common lambsquaters, slender amaranth, common purslane, velvetleaf, wheat, corn and soybean. The seeds were covered up with the soil and cultured in a glasshouse kept at 25° C. on the average.
(§3) Wettable powders containing the object compounds (1) as identified in Table 1, which were formulated following Preparation Example 2, were diluted with water to the prescribed dose of the active ingredient, and uniformly sprayed onto the weeds at 1.0-2.0 leaf stage of the southern crabgrass at an application water of 15 liters per are.
(§4) After placing the test pots in a grasshouse kept at 25° C. on the average for 3 weeks, the herbicidal effect was examined.
(§5) Evaluation of the herbicidal effect was conducted in the similar manner to Test Example 1.

corn [1] = test: Foliage treatment test for upland field (Test Example 3): phytotoxicity to corn; settings: foliage treatment at 1.0-2.0 leaf stage of southern crabgrass, examined after 3 weeks
Description: (§6) Evaluation of phytotoxicity is shown in the following six grades, as compared with the condition of untreated control: • 0: normal growth • 1: little damaged • 2: low damaged • 3: medium damaged • 4: serious damaged • 5: complete killed.
as §2, §4

soybean [2] = test: Soil treatment test for upland field (Test Example 2): phytotoxicity to soybean; settings: soil treatment before germination, examined after 3 weeks
Text: as §6
(§7) Upland field soil was filled in 1/3,000 are pots, seeded with southern crabgrass (Digitaria ciliaris), common lambsquaters (Chenopodium album), slender amaranth (Amaranthus viridis), common purslane (Portulaca oleracea), velvetleaf (Abutilon theophrasti), wheat, corn and soybean. The seeds were covered up with the soil.
(§8) After placing the test pots in a glasshouse which was kept at an average temperature of 25° C. for 3 weeks, the herbicidal effect was examined.

[3] = tested on: southern crabgrass (Digitaria ciliaris); test: Soil treatment test for upland field (Test Example 2): southern crabgrass; settings: soil treatment before germination, examined after 3 weeks
Text: as §1, §7
(§9) Wettable powders containing the object compounds (1) as identified in Table 1, which were formulated following Preparation Example 2, were diluted with adequate amount of water to secure the prescribed dose of the active ingredient, and uniformly sprayed onto the surface soil layer after the seeding and before germination of the weeds, at an application water of 15 liters per are.
as §8
(§10) Evaluations of the herbicidal effect and phytotoxicity were made in the manner similar to those in the above Test Example 1.

[4] = tested on: velvetleaf (Abutilon theophrasti); test: Soil treatment test for upland field (Test Example 2): velvetleaf; settings: soil treatment before germination, examined after 3 weeks
Text: as §1, §7, §9, §8, §10

[5] = tested on: common lambsquaters (Chenopodium album); test: Soil treatment test for upland field (Test Example 2): common lambsquaters; settings: soil treatment before germination, examined after 3 weeks
Text: as §1, §7, §9, §8, §10

common lambsquaters = test: Foliage treatment test for upland field (Test Example 3): common lambsquaters; settings: foliage treatment at 1.0-2.0 leaf stage of southern crabgrass, examined after 3 weeks
Text: as §1, §2, §3, §4, §5

southern crabgrass = test: Foliage treatment test for upland field (Test Example 3): southern crabgrass; settings: foliage treatment at 1.0-2.0 leaf stage of southern crabgrass, examined after 3 weeks
Text: as §1, §2, §3, §4, §5

corn [6] = test: Soil treatment test for upland field (Test Example 2): phytotoxicity to corn; settings: soil treatment before germination, examined after 3 weeks
Text: as §6, §7, §8

[7] = tested on: common purslane (Portulaca oleracea); test: Soil treatment test for upland field (Test Example 2): common purslane; settings: soil treatment before germination, examined after 3 weeks
Text: as §1, §7, §9, §8, §10

wheat [8] = test: Soil treatment test for upland field (Test Example 2): phytotoxicity to wheat; settings: soil treatment before germination, examined after 3 weeks
Text: as §6, §7, §8

wheat [9] = test: Foliage treatment test for upland field (Test Example 3): phytotoxicity to wheat; settings: foliage treatment at 1.0-2.0 leaf stage of southern crabgrass, examined after 3 weeks
Description: as §6, §2, §4

[10] = tested on: barnyard grass (Echinochloa crusgalli); test: Weed control test for paddy field (Test Example 1): barnyard grass; settings: paddy pots, treated at 1.0 leaf stage of barnyard grass, examined after 3 weeks
Text: (§11) Paddy field soil was filled in 1/10,000 are pots, kneaded with adequate amounts of water and chemical fertilizer, seeded with barnyard grass (Echinochloa crusgalli), Monochoria (Monochoria vaginalis), Japanese bulrush (Scirpus juncoides) and flat sedge (Cyperus serotinus), and further transplanted with 2.0 leaf stage of rice plant. The pots were maintained under the water-filled condition to a depth of 3 cm.
(§12) Wettable powders containing the compounds (1) as identified in Table 1, which were formulated following Production Example 2, were diluted with adequate amount of water and applied to the pots dropwise with pippet at a prescribed dose of the active ingredients per are, at 1.0 leaf stage of the barnyard grass.
(§13) After placing the pots in a glasshouse which was controlled at an average temperature of 25° C. for 3 weeks, herbicidal effect was examined.
as §1

slender amaranth = test: Foliage treatment test for upland field (Test Example 3): slender amaranth; settings: foliage treatment at 1.0-2.0 leaf stage of southern crabgrass, examined after 3 weeks
Text: as §1, §2, §3, §4, §5

rice plant = test: Weed control test for paddy field (Test Example 1): phytotoxicity to rice plant
Text: as §11, §12, §13, §6

[11] = tested on: Japanese bulrush (Scirpus juncoides); test: Weed control test for paddy field (Test Example 1): Japanese bulrush; settings: paddy pots, treated at 1.0 leaf stage of barnyard grass, examined after 3 weeks
Text: as §11, §12, §13, §1

[12] = tested on: slender amaranth (Amaranthus viridis); test: Soil treatment test for upland field (Test Example 2): slender amaranth; settings: soil treatment before germination, examined after 3 weeks
Text: as §1, §7, §9, §8, §10

[13] = tested on: Monochoria (Monochoria vaginalis); test: Weed control test for paddy field (Test Example 1): Monochoria; settings: paddy pots, treated at 1.0 leaf stage of barnyard grass, examined after 3 weeks
Text: as §11, §12, §13, §1

soybean [14] = test: Foliage treatment test for upland field (Test Example 3): phytotoxicity to soybean; settings: foliage treatment at 1.0-2.0 leaf stage of southern crabgrass, examined after 3 weeks
Description: as §6, §2, §4

[15] = tested on: flat sedge (Cyperus serotinus); test: Weed control test for paddy field (Test Example 1): flat sedge; settings: paddy pots, treated at 1.0 leaf stage of barnyard grass, examined after 3 weeks
Text: as §11, §12, §13, §1

common purslane = test: Foliage treatment test for upland field (Test Example 3): common purslane; settings: foliage treatment at 1.0-2.0 leaf stage of southern crabgrass, examined after 3 weeks
Text: as §1, §2, §3, §4, §5

SMILES: COC/C(=C\c1cccc(C(F)(F)F)c1)c1nc2cc(Cl)ccc2o1 [Compound 3]
- Herbicidal Effect velvetleaf (velvetleaf; dose 2.5 g ai/a): 5 (100%)
- Herbicidal Effect velvetleaf (velvetleaf; dose 5 g ai/a): 5 (100%)
- Phytotoxicity corn (corn [1]; dose 2.5 g ai/a): 1
- Phytotoxicity corn (corn [1]; dose 5 g ai/a): 1
- Phytotoxicity soybean (soybean [2]; dose 2.5 g ai/a): 0
- Phytotoxicity soybean (soybean [2]; dose 5 g ai/a): 0
- Herbicidal Effect southern crabgrass ([3]; dose 2.5 g ai/a): 5 (100%)
- Herbicidal Effect southern crabgrass ([3]; dose 5 g ai/a): 5 (100%)
- Herbicidal Effect velvetleaf ([4]; dose 2.5 g ai/a): 3 (60%-less than 80%)
- Herbicidal Effect velvetleaf ([4]; dose 5 g ai/a): 4 (80%-less than 100%)
- Herbicidal Effect common lambsquaters ([5]; dose 2.5 g ai/a): 5 (100%)
- Herbicidal Effect common lambsquaters ([5]; dose 5 g ai/a): 5 (100%)
- Herbicidal Effect Common lambsquatters (common lambsquaters; dose 2.5 g ai/a): 5 (100%)
- Herbicidal Effect Common lambsquatters (common lambsquaters; dose 5 g ai/a): 5 (100%)
- Herbicidal Effect southern crabgrass (southern crabgrass; dose 2.5 g ai/a): 5 (100%)
- Herbicidal Effect southern crabgrass (southern crabgrass; dose 5 g ai/a): 5 (100%)
- Phytotoxicity corn (corn [6]; dose 2.5 g ai/a): 0
- Phytotoxicity corn (corn [6]; dose 5 g ai/a): 1
- Herbicidal Effect common purslane ([7]; dose 2.5 g ai/a): 5 (100%)
- Herbicidal Effect common purslane ([7]; dose 5 g ai/a): 5 (100%)
- Phytotoxicity wheat (wheat [8]; dose 2.5 g ai/a): 0
- Phytotoxicity wheat (wheat [8]; dose 5 g ai/a): 0
- Phytotoxicity wheat (wheat [9]; dose 2.5 g ai/a): 1
- Phytotoxicity wheat (wheat [9]; dose 5 g ai/a): 1
- Herbicidal Effect Barnyard grass ([10]; dose 2.5 g ai/a): 5 (100%)
- Herbicidal Effect Barnyard grass ([10]; dose 5 g ai/a): 5 (100%)
- Herbicidal Effect slender amaranth (slender amaranth; dose 2.5 g ai/a): 5 (100%)
- Herbicidal Effect slender amaranth (slender amaranth; dose 5 g ai/a): 5 (100%)
- Phytotoxicity Rice plant (rice plant; in vivo): 1
- Herbicidal Effect Japanese bulrush ([11]; dose 2.5 g ai/a): 4 (80%-less than 100%)
- Herbicidal Effect Japanese bulrush ([11]; dose 5 g ai/a): 5 (100%)
- Herbicidal Effect slender amaranth ([12]; dose 2.5 g ai/a): 5 (100%)
- Herbicidal Effect slender amaranth ([12]; dose 5 g ai/a): 5 (100%)
- Herbicidal Effect Monochoria vaginalis ([13]; dose 2.5 g ai/a): 5 (100%)
- Herbicidal Effect Monochoria vaginalis ([13]; dose 5 g ai/a): 5 (100%)
- Phytotoxicity soybean (soybean [14]; dose 2.5 g ai/a): 1
- Phytotoxicity soybean (soybean [14]; dose 5 g ai/a): 2
- Herbicidal Effect Flat sedge ([15]; dose 2.5 g ai/a): 3 (60%-less than 80%)
- Herbicidal Effect Flat sedge ([15]; dose 5 g ai/a): 5 (100%)
- Herbicidal Effect common purslane (common purslane; dose 2.5 g ai/a): 5 (100%)
- Herbicidal Effect common purslane (common purslane; dose 5 g ai/a): 5 (100%)

SMILES: CSCC(=Cc1cccc(C(F)(F)F)c1)c1nc2cc(Cl)ccc2o1 [Compound 30]
- Phytotoxicity soybean (soybean [2]; dose 2.5 g ai/a): 0
- Phytotoxicity soybean (soybean [2]; dose 5 g ai/a): 0
- Herbicidal Effect southern crabgrass ([3]; dose 2.5 g ai/a): 3 (60%-less than 80%)
- Herbicidal Effect southern crabgrass ([3]; dose 5 g ai/a): 5 (100%)
- Herbicidal Effect velvetleaf ([4]; dose 2.5 g ai/a): 2 (40%-less than 60%)
- Herbicidal Effect velvetleaf ([4]; dose 5 g ai/a): 2 (40%-less than 60%)
- Herbicidal Effect common lambsquaters ([5]; dose 2.5 g ai/a): 4 (80%-less than 100%)
- Herbicidal Effect common lambsquaters ([5]; dose 5 g ai/a): 4 (80%-less than 100%)
- Phytotoxicity corn (corn [6]; dose 2.5 g ai/a): 0
- Phytotoxicity corn (corn [6]; dose 5 g ai/a): 0
- Herbicidal Effect common purslane ([7]; dose 2.5 g ai/a): 5 (100%)
- Herbicidal Effect common purslane ([7]; dose 5 g ai/a): 5 (100%)
- Phytotoxicity wheat (wheat [8]; dose 2.5 g ai/a): 0
- Phytotoxicity wheat (wheat [8]; dose 5 g ai/a): 1
- Herbicidal Effect Barnyard grass ([10]; dose 2.5 g ai/a): 4 (80%-less than 100%)
- Herbicidal Effect Barnyard grass ([10]; dose 5 g ai/a): 5 (100%)
- Phytotoxicity Rice plant (rice plant; dose 2.5 g ai/a, paddy pots, treated at 1.0 leaf stage of barnyard grass, examined after 3 weeks): 0
- Phytotoxicity Rice plant (rice plant; dose 5 g ai/a, paddy pots, treated at 1.0 leaf stage of barnyard grass, examined after 3 weeks): 0
- Herbicidal Effect Japanese bulrush ([11]; dose 2.5 g ai/a): 4 (80%-less than 100%)
- Herbicidal Effect Japanese bulrush ([11]; dose 5 g ai/a): 5 (100%)
- Herbicidal Effect slender amaranth ([12]; dose 2.5 g ai/a): 5 (100%)
- Herbicidal Effect slender amaranth ([12]; dose 5 g ai/a): 5 (100%)
- Herbicidal Effect Monochoria vaginalis ([13]; dose 2.5 g ai/a): 5 (100%)
- Herbicidal Effect Monochoria vaginalis ([13]; dose 5 g ai/a): 5 (100%)
- Herbicidal Effect Flat sedge ([15]; dose 2.5 g ai/a): 3 (60%-less than 80%)
- Herbicidal Effect Flat sedge ([15]; dose 5 g ai/a): 5 (100%)
